Values quoted from earlier work, collected in US20020160961A1, “Compositions for the treatment of the catabolic state of prolonged critical illness” (priority 1999, published 2002).

System: pulsatile TSH secretion
Conditions: TRH infused together with GHRP-2; catabolic state of prolonged critical illness

NC(=O)[C@@H]1CCCN1C(=O)[C@H](Cc1cnc[nH]1)NC(=O)[C@@H]1CCC(=O)N1 [TRH, thyrotropin-releasing hormone]
pulsatile TSH secretion: increased pulsatile TSH secretion
